Measurements from the supplement of paper PMC10331698.
± gives the standard deviation of the averaged measurements.

How the values were obtained:
Test in all cases: level (log10 ratio to DMSO vehicle control); higher = higher biomarker level / cell amount than vehicle control
[1] = compound: NS(=O)(=O)C(F)(F)C(F)(F)C(F)(F)C(F)(F)C(F)(F)C(F)(F)F [Perfluorohexanesulfonamide]; details: in DMSO
Description: (§1)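 BioMAP Diversity Plus panel of 12 human primary cell co-culture systems (3C, 4H, LPS, SAg, BT, BF4T, BE3C, CASM3C, HDF3CGF, KF3CT, MyoF, Mphg). Compounds were added 1 h before stimulation and left for 24 h (MyoF 48 h; BT 72 h for soluble read-outs or 6 d for IgG). Biomarkers were read by ELISA, cytotoxicity by SRB, PBMC viability and proliferation by Alamar Blue. Each well value was divided by the mean of 8 DMSO control wells on the same plate and log10 transformed; duplicate blinded samples were tested at 4 concentrations.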

Nonafluoropentanamide = compound: NC(=O)C(F)(F)C(F)(F)C(F)(F)C(F)(F)F [Nonafluoropentanamide]; details: in DMSO
Description: as §1

[2] = compound: COC(=O)C(F)(F)C(F)(F)OC(F)(C(F)(F)F)C(F)(F)OC(F)=C(F)F [Methyl perfluoro(3-(1-ethenyloxypropan-2-yloxy)propanoate)]; details: in DMSO
Description: as §1

[3] = compound: C=CC(=O)OCC(F)(F)C(F)(F)C(F)(F)COC(=O)C=C [1H,1H,5H,5H-Perfluoro-1,5-pentanediol diacrylate]; details: 6700 nM; in DMSO
Description: as §1

[4] = compound: NC(=O)C(F)(F)C(F)(F)C(F)(F)C(F)F; details: in DMSO
Description: as §1

[5] = compound: FC(F)(F)C(F)(F)C(F)(F)C(F)(F)C(F)(F)C(F)(F)C(F)(F)I [1-Iodopentadecafluoroheptane]; details: in DMSO
Description: as §1

[6] = compound: FC(F)(F)C(F)(F)C(F)(F)CC1CO1 [1H,1H-Heptafluorobutyl epoxide]; details: in DMSO
Description: as §1

[7] = compound: FC(F)(F)C(F)(F)CNCC(F)(F)C(F)(F)F [Bis(1H,1H-perfluoropropyl)amine]; details: in DMSO
Description: as §1

[8] = compound: O=C(O)C=CC(F)(C(F)(F)F)C(F)(F)F [3-(Perfluoroisopropyl)-2-propenoic acid]; details: in DMSO
Description: as §1

[9] = compound: O=S(=O)(Cl)C(F)(F)C(F)(F)C(F)(F)C(F)(F)C(F)(F)C(F)(F)C(F)(F)C(F)(F)F [Perfluoro-1-octanesulfonyl chloride]; details: in DMSO
Description: as §1

[10] = compound: FC(F)(F)C(F)(F)C(F)(F)C(F)(F)C(F)(F)C(F)(F)CC1CO1 [3-(Perfluorohexyl)-1,2-epoxypropane]; details: in DMSO
Description: as §1

Octafluoroadipamide = compound: NC(=O)C(F)(F)C(F)(F)C(F)(F)C(F)(F)C(N)=O [Octafluoroadipamide]; details: in DMSO
Description: as §1

[11] = compound: O=S(=O)(O)CCC(F)(F)C(F)(F)C(F)(F)C(F)(F)C(F)(F)C(F)(F)F [6:2 Fluorotelomer sulfonic acid]; details: in DMSO
Description: as §1

[12] = compound: C=C(C)C(=O)OCCC(F)(F)C(F)(F)C(F)(F)C(F)(F)C(F)(F)C(F)(F)F [6:2 Fluorotelomer methacrylate]; details: in DMSO
Description: as §1

[13] = compound: O=S(=O)(O)C(F)(F)C(F)(F)C(F)(F)C(F)(F)C(F)(F)C(F)(F)C(F)(F)C(F)(F)C(F)(F)C(F)(F)F [Sodium perfluorodecanesulfonate]; details: in DMSO
Description: as §1

[14] = compound: O=C(O)C(F)(F)C(F)(F)C(F)(F)C(F)(F)C(F)(F)C(F)(F)C(F)(F)C(F)(F)C(F)(F)C(F)F [11-H-Perfluoroundecanoic acid]; details: in DMSO
Description: as §1

[15] = compound: O=S(=O)(F)C(F)(F)C(F)(F)C(F)(F)C(F)(F)C(F)(F)C(F)(F)C(F)(F)C(F)(F)F [Perfluorooctanesulfonyl fluoride]; details: in DMSO
Description: as §1

Hexafluoroamylene glycol = compound: OCC(F)(F)C(F)(F)C(F)(F)CO [Hexafluoroamylene glycol]; details: in DMSO
Description: as §1

Heptafluorobutyl iodide = compound: FC(F)(F)C(F)(F)C(F)(F)CI [Heptafluorobutyl iodide]; details: in DMSO
Description: as §1

In the case of HDF3CGF:CXCL10/IP-10, the “level (log10)” value ([1]; 6700 nM) is reported as -0.02 ± 0.037, the “level (log10)” value ([1]; 20000 nM) is reported as -0.059 ± 0.037 and the “level (log10)” value ([1]; 60000 nM) is reported as -0.185 ± 0.069. The “level (log10)” value (Nonafluoropentanamide; 6700 nM) was -0.012 ± 0.0014, the “level (log10)” value (Nonafluoropentanamide; 20000 nM) was -0.0055 ± 0.00071 and the “level (log10)” value (Nonafluoropentanamide; 60000 nM) was -0.004 ± 0.0014. For the same test system, the “level (log10)” value ([2]; 6700 nM) was -0.018 ± 0.062, the “level (log10)” value ([2]; 20000 nM) was -0.203 ± 0.03 and the “level (log10)” value [3] was -0.821 ± 0.0057. The “level (log10)” value ([4]; 6700 nM) was -0.001 ± 0.0014, the “level (log10)” value ([4]; 20000 nM) was -0.0065 ± 0.0021 and the “level (log10)” value ([4]; 60000 nM) was 0.002 ± 0.011. The “level (log10)” value ([5]; 6700 nM) was 0.0025 ± 0.0021, the “level (log10)” value ([5]; 20000 nM) was -0.026 ± 0.0071 and the “level (log10)” value ([6]; 6700 nM) was -0.0275 ± 0.0078. The “level (log10)” value ([6]; 20000 nM) was -0.0285 ± 0.053, the “level (log10)” value ([6]; 60000 nM) was -0.054 ± 0.054 and the “level (log10)” value ([7]; 6700 nM) was 0.011 ± 0.011. The “level (log10)” value ([7]; 20000 nM) was -0.001 ± 0.0042, the “level (log10)” value ([7]; 60000 nM) was 0.0265 ± 0.025 and the “level (log10)” value ([8]; 6700 nM) was -0.007 ± 0.034. The “level (log10)” value ([8]; 20000 nM) was 0.0025 ± 0.035, the “level (log10)” value ([8]; 60000 nM) was -0.001 ± 0.027 and the “level (log10)” value ([9]; 6700 nM) was -0.0115 ± 0.0021. For the same test system, the “level (log10)” value ([9]; 20000 nM) was -0.046 ± 0.021, the “level (log10)” value ([9]; 60000 nM) was -0.0365 ± 0.018 and the “level (log10)” value ([10]; 6700 nM) was 0.005 ± 0.031. The “level (log10)” value ([10]; 20000 nM) was 0.012 ± 0.034, the “level (log10)” value ([10]; 60000 nM) was -0.0095 ± 0.037 and the “level (log10)” value (Octafluoroadipamide; 6700 nM) was 0.011 ± 0.0028. The “level (log10)” value (Octafluoroadipamide; 20000 nM) was -0.0045 ± 0.016, the “level (log10)” value (Octafluoroadipamide; 60000 nM) was 0.031 ± 0.03 and the “level (log10)” value ([11]; 6700 nM) was -0.0075 ± 0.018. The “level (log10)” value ([11]; 20000 nM) was -0.046 ± 0.021, the “level (log10)” value ([11]; 60000 nM) was -0.0325 ± 0.042 and the “level (log10)” value ([12]; 6700 nM) was -0.0075 ± 0.016. The “level (log10)” value ([12]; 20000 nM) was -0.019 ± 0.021, the “level (log10)” value ([12]; 60000 nM) was -0.0225 ± 0.026 and the “level (log10)” value ([13]; 1500 nM) was -0.001 ± 0.027. For the same test system, the “level (log10)” value ([13]; 4400 nM) was -0.065 ± 0.0042, the “level (log10)” value ([13]; 13000 nM) was -0.025 ± 0.02 and the “level (log10)” value ([13]; 40000 nM) was 0.012. For the same test system, the “level (log10)” value ([14]; 6700 nM) was -0.117 ± 0.011, the “level (log10)” value ([14]; 20000 nM) was -0.331 ± 0.0071 and the “level (log10)” value ([15]; 6700 nM) was -0.0005 ± 0.0021. The “level (log10)” value ([15]; 20000 nM) was -0.015 ± 0.011, the “level (log10)” value ([15]; 60000 nM) was -0.012 ± 0.014 and the “level (log10)” value (Hexafluoroamylene glycol; 6700 nM) was -0.009. The “level (log10)” value (Hexafluoroamylene glycol; 20000 nM) was -0.0135 ± 0.029, the “level (log10)” value (Hexafluoroamylene glycol; 60000 nM) was -0.028 ± 0.051 and the “level (log10)” value (Heptafluorobutyl iodide; 6700 nM) was 0.0035 ± 0.012. The “level (log10)” value (Heptafluorobutyl iodide; 20000 nM) was -0.007 ± 0.011 and the “level (log10)” value (Heptafluorobutyl iodide; 60000 nM) was -0.017 ± 0.014.

In the case of HDF3CGF:CXCL11/I-TAC, the “level (log10)” value ([1]; 6700 nM) is reported as 0.0075 ± 0.018, the “level (log10)” value ([1]; 20000 nM) is reported as -0.028 ± 0.011 and the “level (log10)” value ([1]; 60000 nM) is reported as -0.189 ± 0.033. The “level (log10)” value (Nonafluoropentanamide; 6700 nM) was -0.0095 ± 0.021, the “level (log10)” value (Nonafluoropentanamide; 20000 nM) was 0.009 ± 0.024 and the “level (log10)” value (Nonafluoropentanamide; 60000 nM) was -0.0155 ± 0.011. For the same test system, the “level (log10)” value ([2]; 6700 nM) was -0.0285 ± 0.018, the “level (log10)” value ([2]; 20000 nM) was -0.272 ± 0.0078 and the “level (log10)” value [3] was -0.41 ± 0.045. The “level (log10)” value ([4]; 6700 nM) was -0.0035 ± 0.016, the “level (log10)” value ([4]; 20000 nM) was -0.002 ± 0.013 and the “level (log10)” value ([4]; 60000 nM) was -0.002 ± 0.027. For the same test system, the “level (log10)” value ([5]; 6700 nM) was -0.019 ± 0.0057, the “level (log10)” value ([5]; 20000 nM) was -0.0405 ± 0.0092 and the “level (log10)” value ([6]; 6700 nM) was -0.0165 ± 0.063. The “level (log10)” value ([6]; 20000 nM) was -0.016 ± 0.093, the “level (log10)” value ([6]; 60000 nM) was -0.0255 ± 0.11 and the “level (log10)” value ([7]; 6700 nM) was -0.0065 ± 0.0092. The “level (log10)” value ([7]; 20000 nM) was -0.0045 ± 0.013, the “level (log10)” value ([7]; 60000 nM) was 0.0195 ± 0.035 and the “level (log10)” value ([8]; 6700 nM) was -0.004 ± 0.0014. The “level (log10)” value ([8]; 20000 nM) was 0.015 ± 0.025, the “level (log10)” value ([8]; 60000 nM) was 0.002 ± 0.021 and the “level (log10)” value ([9]; 6700 nM) was -0.038 ± 0.0028. The “level (log10)” value ([9]; 20000 nM) was -0.0315 ± 0.018, the “level (log10)” value ([9]; 60000 nM) was -0.0145 ± 0.022 and the “level (log10)” value ([10]; 6700 nM) was 0.01 ± 0.016. For the same test system, the “level (log10)” value ([10]; 20000 nM) was 0.015 ± 0.0028, the “level (log10)” value ([10]; 60000 nM) was -0.003 ± 0.027 and the “level (log10)” value (Octafluoroadipamide; 6700 nM) was -0.0025 ± 0.011. The “level (log10)” value (Octafluoroadipamide; 20000 nM) was 0 ± 0.023, the “level (log10)” value (Octafluoroadipamide; 60000 nM) was 0.018 ± 0.0014 and the “level (log10)” value ([11]; 6700 nM) was -0.0445 ± 0.1. For the same test system, the “level (log10)” value ([11]; 20000 nM) was -0.0605 ± 0.088, the “level (log10)” value ([11]; 60000 nM) was -0.0885 ± 0.091 and the “level (log10)” value ([12]; 6700 nM) was -0.022 ± 0.021. For the same test system, the “level (log10)” value ([12]; 20000 nM) was -0.014 ± 0.0014, the “level (log10)” value ([12]; 60000 nM) was -0.018 ± 0.013 and the “level (log10)” value ([13]; 1500 nM) was -0.0205 ± 0.029. The “level (log10)” value ([13]; 4400 nM) was -0.0225 ± 0.0092, the “level (log10)” value ([13]; 13000 nM) was 0.0785 ± 0.013 and the “level (log10)” value ([13]; 40000 nM) was 0.092 ± 0.0042. For the same test system, the “level (log10)” value ([14]; 6700 nM) was -0.127 ± 0.023, the “level (log10)” value ([14]; 20000 nM) was -0.2405 ± 0.0021 and the “level (log10)” value ([15]; 6700 nM) was -0.0035 ± 0.0021. For the same test system, the “level (log10)” value ([15]; 20000 nM) was -0.012 ± 0.0028, the “level (log10)” value ([15]; 60000 nM) was -0.0155 ± 0.0021 and the “level (log10)” value (Hexafluoroamylene glycol; 6700 nM) was 0.001 ± 0.04. The “level (log10)” value (Hexafluoroamylene glycol; 20000 nM) was -0.015 ± 0.088, the “level (log10)” value (Hexafluoroamylene glycol; 60000 nM) was -0.044 ± 0.1 and the “level (log10)” value (Heptafluorobutyl iodide; 6700 nM) was -0.0515 ± 0.019. For the same test system, the “level (log10)” value (Heptafluorobutyl iodide; 20000 nM) was -0.069 ± 0.076 and the “level (log10)” value (Heptafluorobutyl iodide; 60000 nM) was -0.091 ± 0.045.
